Broadly, the Kd is a measure of binding affinity in units of concentration.

In article PMC8020153 (Journal of Advanced Research, 2020) one finds Kd data, which are given here for one compound.

This experiment deals with pyruvate kinase isozyme type M2 (PKM2) (Homo sapiens, UniProt P14618). Put plainly: SPR with immobilized recombinant human PKM2. The format is binding.
pyruvate kinase isozyme type M2 (PKM2), sequence (P14618 2-531): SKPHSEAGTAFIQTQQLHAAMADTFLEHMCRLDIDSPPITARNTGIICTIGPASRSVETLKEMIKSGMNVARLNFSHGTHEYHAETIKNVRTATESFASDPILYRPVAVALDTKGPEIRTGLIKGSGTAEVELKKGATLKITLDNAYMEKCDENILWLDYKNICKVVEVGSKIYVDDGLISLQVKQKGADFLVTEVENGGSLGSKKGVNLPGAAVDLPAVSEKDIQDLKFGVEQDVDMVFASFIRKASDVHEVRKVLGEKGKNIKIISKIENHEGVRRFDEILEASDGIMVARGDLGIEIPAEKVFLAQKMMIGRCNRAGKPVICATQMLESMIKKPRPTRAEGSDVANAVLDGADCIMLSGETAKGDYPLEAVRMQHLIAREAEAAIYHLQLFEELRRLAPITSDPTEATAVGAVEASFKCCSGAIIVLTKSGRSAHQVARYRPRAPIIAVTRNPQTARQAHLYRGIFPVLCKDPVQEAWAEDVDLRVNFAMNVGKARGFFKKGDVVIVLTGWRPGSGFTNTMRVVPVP

`C1=Cc2ccccc2Nc2ccccc21` [ISB, Iminostilbene]: the dissociation constant (Kd) was determined as 18.6 µM.
